Assay [1] can be described thus: Real time association and dissociation of dye to bead (color intensity). The format is binding. The procedure:
(§1) Dye solutions were prepared in PBS to a 100 μM final concentration and 5 mL of each dye solution were added into the 60 mm dish with beads. Three dyes were tested sequentially. The dish was kept swirling at 60 rpm on the rotator. The dye binding was monitored for 90 minutes, and then the dye solution was removed from the dishes and PBS was added to rinse the beads on the bottom to remove the color dye. The PBS solution was changed every 30 min and the dish was always swirled as above. The beads color change was also observed and recorded at certain time interval during the whole wash process to collect data of color dissociation. Before adding the next dye solution, beads were washed with 70% ethanol to completely remove residual dye and were rinsed with PBS solution three times afterwards.
(§2) A representative positive bead for each color was selected for the color binding and dissociation study. A series of images were taken at different time points during the binding and washing process. From the images taken, regions of interest (ROI) with the same size were picked up from the color beads and colorless control beads. The value from the control bead was subtracted from the color bead to get quantitated color value for each single color bead. The measure of the color intensity for each color dye was performed using the Kodak Image Station 2000MM.
(§3) With the PDMS affixed bead method, it is possible to dynamically observe the peptide-dye interaction on each individual immobilized bead in real time. To further characterize the binding profile for each of the target/sequence interactions, beads #1, #4 and #10 were selected for binding and dissociation study with each respective target dye, by measuring the intensity of the resulting color accumulation on the bead surface at different time points. The values obtained for color intensity across progressing time points were plotted and the profiles for the three dye/bead interactions were compared. The association and dissociation rate of each organic dye to its respective binding peptide was evaluated. […]

Assay [2] is described as follows: Sequential screening of PDMS affixed OBOC bead array with three dyes. The following applies: 100 μM dye in PBS, three dyes incubated sequentially on the same bead array. The assay is classed as binding. As to the method: Silicon Elastomer Base was mixed completely with Silicone Elastomer Curing Agent at ratio 10:1 in volume and the solution was kept in vacuum container for 15 to 20 minutes to eliminate the gas bubbles formed during the mixing process. After the removal of all residual bubbles, approximately 0.5-1 mL of PDMS solution was added into the bottom of a 60 mm culture dish. The dish was then spun on a single wafer spin processor (Laurell Technologies Corporation®, model WS-6505-6NPP/Lite) to evenly distribute the solution over the plates, at a speed of 4000 rpm for 30 s. A 5 μm layer of PDMS was formed on the bottom of dish and was cured at 80° C. for 5 min or at room temperature for 24 hrs to allow for beads immobilization. Knowing that the PDMS coating was about 5 μm thick and the radius of bead was around 45 μm, the percentage of free bead surface area was estimated by the formula of [1-2πrh/4πr^2]×100% (h=thickness of PDMS layer; r=radius of bead) to be approximately 95%. The library beads resuspended in 70% ethanol solution were first randomly placed on the surface of a glass plate that was 10% smaller than the dish used in the experiment. After the ethanol evaporated, a syringe needle was used to adjust the dry beads to evenly redistribute beads on the glass surface. Then the dish was inverted and the PDMS layer was pressed down onto the glass plate with beads. The library beads were embedded partly inside the PDMS layer.
as §1, §2
The PDMS affixed bead array was incubated with three different dyes sequentially. […] Eleven beads were selected for further analysis based on their characteristic binding profiles (FIG. 2). […] The amino acid sequences of the peptides bound to the beads were determined (Table 1).

Assay [3] is described as follows: Real time association and dissociation of dye to bead (color intensity). The format is binding. The procedure:
as §1, §2, §3
This is another data set of the same source.

Assay [4] in a line: Histone H2 tail OBOC library screening with DMHBI. The assay is classed as binding. The following applies: library peptide fused to N-terminal H2. The procedure: An OBOC combinatorial library was prepared for the development of GESIs for probing histone H2 tail. The library design is shown in FIG. 20C, wherein X represents all 20 eukaryotic amino acids except for cysteine; all possible post-translational modification states of Ser-1 and Lys-5 are incorporated; and additional Xs at the N-terminus of the histone tail will provide necessary capturing residues for fluorescent dyes.

Assay [5] can be described thus: Fluorescence titration of peptide in solution with MG, 2 mM Ca2+, 650 nm. The assay is classed as binding. The procedure:
(§4) Two peptides that can activate MG with or without calcium sensitivity were selected for further characterization. A solution form of the two peptides were synthesized and titrated with MG in the presence of 2 mM Ca^2+. Fluorescent signal at 650 nm was measured. […] Computational modeling confirmed stably folded structure of peptide 12 upon MG binding, preventing intramolecular motions of MG (FIG. 8B, FIG. 10A, B). […] The immobilized peptides on TentaGel beads were then titrated with an increasing amount of MG in the presence and absence of 2 mM Ca^2+. Fluorescent emission at 650 nm by each individual bead was measured. […] Computational modeling further confirmed that stably folded structure of peptide 2 only forms upon calcium binding (FIG. 11B).

Assay [6] is described as follows: Titration of immobilized peptides on TentaGel beads with MG in presence and absence of 2 mM Ca2+. The following applies: presence vs absence of 2 mM Ca2+, peptide on bead. The format is binding. As to the method: as §4
The test system of assay [7] is HEK293 cells. The assay can be described thus: Dual-color confocal imaging of Cerulean-linker-peptide fusion proteins with MG and acetylcholine. The format is cell-based. An excerpt:
To evaluate the utility of lead peptides in mammalian cells, individual peptide tags were fused to the C-terminus of a cyan fluorescence protein (Cerulean 3) anchored on the plasma membrane. An amino acid linker (GGSGSGGS: SEQ ID NO:33) was placed between C-terminus of Cerulean and the peptide to increase the solubility and stability of the recombinant fusion proteins. Goals for the design of fusion proteins are two-folds. First, the labeling ability of peptides can be readily detected by co-localization of both cyan and infrared fluorescence. Second, the calcium sensing ability of peptide can be tested by taking advantage of endogenous acetylcholine (Ach) receptors; Ach stimulus leads to transient calcium influx in cytosol, which may lead to increased MG fluorescence. Given the limited membrane permeability of MG, a relative high concentration of MG (5×10^−7 M) was used for the imaging assay. 48 hrs post-transfection, time-lapse, dual-color confocal fluorescence microscopy images were taken upon MG incubation, followed by Ach addition. […] The fluorescence intensity reached plateau within seconds and remains stable during the 10 mins period of imaging window. In contrast, no apparent infrared fluorescence was observed when membrane-anchored Cerulean control (without grafted peptide) was expressed upon MG addition (FIG. 15A). […]

Assay [8] can be described thus: MG binding of peptide ligands from screening and their derivatives. The following applies: 11 hour incubation with 5 μM MG in PBS buffer (pH 7.4). Further details: key to MG binding: −: no binding; +: weak binding; ++: mild binding; +++: strong binding; ++++: very strong binding.
Assay [9] in a line: Fluorescent activation of MG by peptide compared with LTA2 and LTA10. The format is binding. The following applies: preliminary data. The source says: We expect to generate a toolbox of functional illuminant peptides that can be used in a broad range of biological applications. Translating the peptides identified in aim 1 to highly sensitive and specific functional illuminants in living cells, however, is more challenging. In this proposal, we will characterize the utility of these peptides in live cells with an emphasis on phosphorylation (Aim 2) and histone epigenetics (Aim 3). As indicated above, we plan to design and synthesize a series of dyes candidates for GESI development. We are cognizant that many organic dyes bind non-specifically to many proteins, but usually at rather high concentration (mM). […] It is also important to realize that not all binding events will activate fluorescence. […] This works in our favor as not all non-specific binding (if there is any) will lead to activation of the dyes. One concern that the previous reviewers have was the large number of Trp in our initial leads (e.g. LTA2 and LTA10). As shown in the preliminary data, many strong activators for MG have low number of Trp. For example, fluorescent activation of MG by LRRAS(P)LFYGMWYPST (SEQ ID NO:227), with only 1 Trp, is 4-5× brighter than that of LTA2 and LTA10.

pKd: −log10 of the molar value. Entries after “also recorded” stand apart in the source; their conditions may differ. Read-outs that look alike come from different tables or passages of the source. Where no end group is shown, it is not given here. [ ]: non-standard residue; d: D form. pS = N[C@@H](COP(=O)(O)O)C(=O)O

For the substance “CHTHILC (not fully specified (bridges); cysteine pairing not given here; also: bead-bound) [Bead #4]”, in assay [1] (bead incubated with bromocresol purple), the “Time to maximum color binding” value is reported as “around 75 minutes”. In assay [1] (washing), the “Time until color disappeared (dissociation)” value is not above 72 h. The Dye binding entry in [2] (listed as # 4) is reported as “Bromocresol”; in [2] (listed as #4), “only bind to bromocresol purple; also recorded: bind only to bromocresol purple”.

“CKWILPC (not fully specified (bridges); cysteine pairing not given here; also: bead-bound) [Bead #10]”: in assay [1] (bromocresol purple), the “Binding and dissociation rates compared with indigo carmine” value is recorded as “much slower”. Moreover, in [3] (bead incubated with indigo carmine), the “Time until colorization was seen” value is on record as “within five minutes”. The “Time until color completely gone (dissociation)” value in assay [3] (washing with PBS) was determined as 20 min. In addition, the Dye binding result in assay [2] (listed as #10) was “bind to both indigo carmine and bromocresol purple”.

With “CNSPDIC (not fully specified (bridges); cysteine pairing not given here; also: bead-bound) [Bead #1]”, the “Time after which color had not completely diminished (dissociation)” value in assay [3] (after washing) is more than 72 h. Also, the results for the Dye binding entry in assay [2] (listed as # 1) and in assay [2] (listed as #1) were “Malachite green” and “only bind to malachite green; also recorded: bind only to malachite green”, respectively.

Consider DPSWPNS(P)GRGK(Ac) (DPSWPN[pS]GRGK(Ac)), for which, in assay [4], the DMHBI activation result was “DMHBI activating”.

In the case of DWWDWGNHGYTE [Peptide 12], the “Binding characteristics in solution studies” value in assay [5] is reported as “strong binding characteristics”. The pKd in assay [5] (binding to MG, read-out: binding affinity) is 9.39; in [5] (peptide in solution, 2 mM Ca2+, one-site specific binding, read-out: Kd), approximately 9.39.

Turning to “DWWWDGFERLEE (synthetic genetically encoded small illuminant (GESI) malachite green (MG) binding Peptide 2)”, the “Increase of MG binding affinity by calcium” value in assay [6] is “about 10 fold”; in [6] (listed as peptide 2) it was 10 fold. The “Binding characteristics in solution studies” value in [5] was “strong binding characteristics”. Further, the “Sensitivity to calcium upon acetylcholine stimulation” value in assay [7] is reported as “showed sensitivity to calcium”. Further, the “Increase of MG fluorescence intensity upon Ach addition” value in [7] (living cells) came to 4 fold. For the same substance, in assay [8], the MG binding result is listed as “++”.

Consider GLFDQES(P)GRGK (GLFDQE[pS]GRGK), for which the DMHBI activation result in assay [4] was “DMHBI activating”.

Regarding LRRAS(P)LFYGMWYPST (LRRA[pS]LFYGMWYPST), the “Fluorescent activation of MG, brightness relative to LTA2 and LTA10” value in assay [9] is 4-5 ×.

Regarding TRPSMWS(P)GRGK(Ac) (TRPSMW[pS]GRGK(Ac)), the DMHBI activation entry in assay [4] is given as “DMHBI activating”.

Regarding VWDGIRS(P)GRGK(Ac) (VWDGIR[pS]GRGK(Ac)), the DMHBI activation result in assay [4] is “DMHBI activating”.
